Drawing on article PMC2151634 (The Journal of General Physiology, 2007), this text covers EC50 for one molecule.

This experiment deals with T1, P2X2 receptor (Rattus norvegicus, UniProt P49653).
T1 sequence (P49653 1-472): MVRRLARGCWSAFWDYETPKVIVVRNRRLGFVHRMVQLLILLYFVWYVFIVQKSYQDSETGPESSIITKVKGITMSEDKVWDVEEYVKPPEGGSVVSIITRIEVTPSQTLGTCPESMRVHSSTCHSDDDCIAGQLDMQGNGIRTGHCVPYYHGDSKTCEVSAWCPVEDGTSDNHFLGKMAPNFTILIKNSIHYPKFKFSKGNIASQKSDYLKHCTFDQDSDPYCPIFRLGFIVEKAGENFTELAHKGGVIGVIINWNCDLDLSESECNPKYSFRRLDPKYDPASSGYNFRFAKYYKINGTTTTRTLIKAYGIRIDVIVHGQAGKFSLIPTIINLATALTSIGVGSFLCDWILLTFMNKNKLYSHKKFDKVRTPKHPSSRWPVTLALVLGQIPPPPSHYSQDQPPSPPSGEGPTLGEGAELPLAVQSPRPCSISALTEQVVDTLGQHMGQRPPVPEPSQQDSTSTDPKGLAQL
As to the kind of experiment: outside-out patch clamp, peak current, 2-s ATP pulses. It is filed as cell-based. On the technique in general: In patch-clamp work, channel activity is measured electrically.

By EC50 is commonly meant the midpoint of the concentration-response curve.

In turn, `Nc1ncnc2c1ncn2[C@@H]1O[C@H](COP(=O)(O)OP(=O)(O)OP(=O)(O)O)[C@@H](O)[C@H]1O` [ATP] registered an EC50 of 9.8 µM.
